Test results as given in patent US20100022491A1, “4-HYDROXY-2-OXO-2,3-DIHYDRO-1,3-BENZOTHIAZOL-7YL COMPOUNDS FOR MODULATION OF B2-ADRENORECEPTOR ACTIVITY” (ASTRAZENECA AB, priority 2006, published 2010).
Counter-ions that a name gives are not always drawn.

Columns and labels:
[1] = target: T1, recombinant human Dopamine Subtype D2s receptors (Homo sapiens, UniProt P14416); assay: Dopamine D2 selectivity binding assay ([3H]-spiperone); conditions: inhibition of [3H]-spiperone (0.16 nM) binding; for IC50: read-out: D2 bind pIC50 (converted)
T1 construct: purchased Perkin Elmer
T1 sequence (P14416 1-414 isoform P14416-2): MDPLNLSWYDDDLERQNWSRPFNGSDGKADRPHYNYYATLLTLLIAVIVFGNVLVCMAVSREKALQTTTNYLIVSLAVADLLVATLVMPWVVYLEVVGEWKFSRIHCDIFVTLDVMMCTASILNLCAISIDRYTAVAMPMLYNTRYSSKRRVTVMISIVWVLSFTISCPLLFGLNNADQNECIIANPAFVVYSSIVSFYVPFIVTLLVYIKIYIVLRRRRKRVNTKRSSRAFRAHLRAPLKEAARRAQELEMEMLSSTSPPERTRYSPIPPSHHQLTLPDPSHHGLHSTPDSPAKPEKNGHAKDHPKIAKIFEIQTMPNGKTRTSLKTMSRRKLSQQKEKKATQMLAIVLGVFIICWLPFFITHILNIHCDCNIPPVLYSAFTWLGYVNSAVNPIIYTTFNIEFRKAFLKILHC
Summary of the method: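 Recombinant human D2s membranes incubated 2 h at room temperature with 0.16 nM [3H]-spiperone in HEPES/EDTA/NaCl/gelatin buffer, pH 7.4; 10 μM haloperidol defined non-specific binding. Filter-bound radioactivity counted after cold washes. pIC50 from 4-parameter logistic fit of NSB-corrected specific binding.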

Adrenergic β2 = target: T2, Adrenergic β2 (Homo sapiens, UniProt P07550); assay: Adrenergic β2 mediated cAMP production in H292 cells; type: cell-based; conditions: for EC50 / β2 pEC50: H292 cells, cAMP by AlphaScreen, 60 minutes at room temperature, rolipram 300 μM; for EC50: read-out: β2 pEC50 (converted); for β2 Int Act: Intrinsic Activity as a fraction relative to the maximum activity determined for formoterol
T2 construct: Adherent H292 cells were removed from tissue culture flasks; endogenous in cells; host or cells: H292 cells
T2 sequence (P07550 whole entry): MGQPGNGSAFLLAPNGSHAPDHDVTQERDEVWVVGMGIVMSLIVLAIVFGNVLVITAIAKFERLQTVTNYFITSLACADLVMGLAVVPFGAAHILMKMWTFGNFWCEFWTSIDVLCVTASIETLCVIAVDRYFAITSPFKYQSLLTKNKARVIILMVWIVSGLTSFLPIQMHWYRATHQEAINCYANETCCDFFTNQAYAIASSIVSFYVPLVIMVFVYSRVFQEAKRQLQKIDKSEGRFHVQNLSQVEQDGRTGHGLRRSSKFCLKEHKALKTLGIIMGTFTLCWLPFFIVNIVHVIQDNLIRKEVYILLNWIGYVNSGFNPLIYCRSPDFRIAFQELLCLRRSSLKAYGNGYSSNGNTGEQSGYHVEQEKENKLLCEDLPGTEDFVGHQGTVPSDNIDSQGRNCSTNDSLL
Summary of the method: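 H292 cells pretreated 10 min with rolipram (300 μM final), then exposed to agonist 60 min at room temperature in HEPES-buffered HBSS, 1.6% DMSO final. Lysate cAMP quantified by AlphaScreen against a cAMP standard curve; four-parameter fit gives pEC50 and intrinsic activity relative to formoterol maximum.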

[2] = target: T3, recombinant human adrenergic beta 1 receptors (Homo sapiens, UniProt P08588); assay: Adrenergic β1 selectivity binding assay ([125I]-Iodocyanopindolol); conditions: inhibition of [125I]-Iodocyanopindolol (0.036 nM) binding; for IC50: read-out: β1 bind p IC50 (converted)
T3 construct: purchased Euroscreen
T3 sequence (P08588 whole entry): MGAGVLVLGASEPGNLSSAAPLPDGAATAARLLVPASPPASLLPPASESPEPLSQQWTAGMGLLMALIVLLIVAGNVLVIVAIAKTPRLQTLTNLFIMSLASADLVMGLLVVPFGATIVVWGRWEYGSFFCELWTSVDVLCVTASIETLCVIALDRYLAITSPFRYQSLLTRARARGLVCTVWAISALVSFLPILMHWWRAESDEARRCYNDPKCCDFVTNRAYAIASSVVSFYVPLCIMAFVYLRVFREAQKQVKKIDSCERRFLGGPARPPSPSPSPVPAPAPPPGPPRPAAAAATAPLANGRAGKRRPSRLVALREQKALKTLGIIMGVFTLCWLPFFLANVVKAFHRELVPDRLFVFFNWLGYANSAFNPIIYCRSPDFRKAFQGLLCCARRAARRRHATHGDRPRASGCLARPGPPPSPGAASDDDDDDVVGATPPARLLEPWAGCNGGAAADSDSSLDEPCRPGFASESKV
Summary of the method: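 Recombinant human β1 membranes in HEPES buffer pH 7.4 with 120 mM NaCl were incubated 2 hours at room temperature with 0.036 nM [^125I]-Iodocyanopindolol. Nonspecific binding defined by 10 μM propranolol; bound radioactivity counted after filtration. pIC50 from four-parameter logistic fit.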

For `O=C(CCNCCc1cccc(Cl)c1)N(CCNCCc1ccc(O)c2[nH]c(=O)sc12)C1CCC(F)(F)CC1` [Example 47, N^3-[2-(3-Chlorophenyl)ethyl]-N^1-(4,4-difluorocyclohexyl)-N^1-(2-{[2-(4-hydroxy-2-oxo-2,3-dihydro-1,3-benzothiazol-7-yl)ethyl]amino}ethyl)-β-alaninamide bis-trifluoroacetic acid salt], the IC50 [1] was 158 nM, the EC50 (Adrenergic β2) was 3.16 nM and the “β2 Int Act” value (Adrenergic β2) was 0.73. The IC50 [2] was 1260 nM.

For `O=C(CCNCCc1cccc(F)c1F)N(CCNCCc1ccc(O)c2[nH]c(=O)sc12)C1CCCCCC1` [Example 56, N^1-Cycloheptyl-N^3-[2-(2,3-difluorophenyl)ethyl]-N^1-(2-{[2-(4-hydroxy-2-oxo-2,3-dihydro-1,3-benzothiazol-7-yl)ethyl]amino}ethyl)-β-alaninamide bis-trifluoroacetic acid salt], the IC50 [1] was 31.6 nM, the EC50 (Adrenergic β2) was 5.01 nM and the “β2 Int Act” value (Adrenergic β2) was 0.86. The IC50 [2] was 3160 nM.

With `CCCC[C@H](C)N(CCNCCc1ccc(O)c2[nH]c(=O)sc12)C(=O)CCNCCc1ccccc1` [Example 102, N-(2-{[2-(4-Hydroxy-2-oxo-2,3-dihydro-1,3-benzothiazol-7-yl)ethyl]amino}ethyl)-N-[(1S)-1-methylpentyl]-N^3-(2-phenylethyl)-β-alaninamide bis-trifluoroacetic acid salt] the IC50 [1] was 79.4 nM, the EC50 (Adrenergic β2) was 79.4 nM and the “β2 Int Act” value (Adrenergic β2) was 0.23. It also gave an IC50 [2] of 1260 nM.

For `O=C(CCNCCc1ccc(F)cc1F)N(CCNCCc1ccc(O)c2[nH]c(=O)sc12)C1CCCCCC1` [Example 55, N^1-Cycloheptyl-N^3-[2-(2,4-difluorophenyl)ethyl]-N^1-(2-{[2-(4-hydroxy-2-oxo-2,3-dihydro-1,3-benzothiazol-7-yl)ethyl]amino}ethyl)-β-alaninamide bis-trifluoroacetic acid salt], the IC50 [1] was 20 nM, the EC50 (Adrenergic β2) was 10 nM and the “β2 Int Act” value (Adrenergic β2) was 0.81. For the same molecule, the IC50 [2] was 2510 nM.

`O=C(CCNCCc1cccc(F)c1)N(CCNCCc1ccc(O)c2[nH]c(=O)sc12)C1CCCCC1` [Example 15, N-Cyclohexyl-N^3-[2-(3-fluorophenyl)ethyl]-N-(2-{[2-(4-hydroxy-2-oxo-2,3-dihydro-1,3-benzothiazol-7-yl)ethyl]amino}ethyl)-β-alaninamide bis-trifluoroacetic acid salt] was tested, and the “D2 bind pIC50” value [1] was 6.4, the “β2 pEC50” value (Adrenergic β2) was 8.6 and the “β1 bind p IC50” value [2] was 5.2.

With `CC(CN(C(=O)CCNCCc1ccccc1)C1CCCCC1)NCCc1ccc(O)c2[nH]c(=O)sc12` (stereo not drawn) [Example 105, N-Cyclohexyl-N-(2-{[2-(4-hydroxy-2-oxo-2,3-dihydro-1,3-benzothiazol-7-yl)ethyl]amino}propyl)-N^3-(2-phenylethyl)-β-alaninamide bis-trifluoroacetic acid salt] the IC50 [1] was 316 nM, the EC50 (Adrenergic β2) was 6.31 nM and the “β2 Int Act” value (Adrenergic β2) was 0.86. The IC50 [2] was 1580 nM.

For `O=C(CCNCCc1cccc(F)c1)N(CCNCCc1ccc(O)c2[nH]c(=O)sc12)C1CCCCCC1` [Example 36, N-Cycloheptyl-N^3-[2-(3-fluorophenyl)ethyl]-N-(2-{[2-(4-hydroxy-2-oxo-2,3-dihydro-1,3-benzothiazol-7-yl)ethyl]amino}ethyl)-β-alaninamide bis-trifluoroacetic acid salt], the IC50 [1] was 200 nM, the EC50 (Adrenergic β2) was 2.51 nM and the “β2 Int Act” value (Adrenergic β2) was 0.84. It also gave an IC50 [2] of 3160 nM.

For `O=C(CCNCCc1cccc(Cl)c1)N(CCNCCc1ccc(O)c2[nH]c(=O)sc12)C1CCCCCC1` [Example 50, N^3-[2-(3-Chlorophenyl)ethyl]-N^1-cycloheptyl-N^1-(2-{[2-(4-hydroxy-2-oxo-2,3-dihydro-1,3-benzothiazol-7-yl)ethyl]amino}ethyl)-β-alaninamide bis-trifluoroacetic acid salt], the IC50 [1] was 31.6 nM, the EC50 (Adrenergic β2) was 1.26 nM and the “β2 Int Act” value (Adrenergic β2) was 0.91. For the same molecule, the IC50 [2] was 794 nM.

In the case of `O=C(CCNCCc1cccs1)N(CCNCCc1ccc(O)c2[nH]c(=O)sc12)C1CCCCC1` [Example 35, N-Cyclohexyl-N-(2-{[2-(4-hydroxy-2-oxo-2,3-dihydro-1,3-benzothiazol-7-yl)ethyl]amino}ethyl)-N^3-[2-(2-thienyl)ethyl]-β-alaninamide bis-trifluoroacetic acid salt], the IC50 [1] is reported as 316 nM, the EC50 (Adrenergic β2) is reported as 3.98 nM and the “β2 Int Act” value (Adrenergic β2) is reported as 0.91. The IC50 [2] was 3980 nM.

`O=C(CCNCCc1cccc(O)c1)N(CCNCCc1ccc(O)c2[nH]c(=O)sc12)C1CCCCCC1` [Example 37, N-Cycloheptyl-N-(2-{[2-(4-hydroxy-2-oxo-2,3-dihydro-1,3-benzothiazol-7-yl)ethyl]amino}ethyl)-N^3-[2-(3-hydroxyphenyl)ethyl]-β-alaninamide bis-trifluoroacetic acid salt] was tested, and the IC50 [1] was 398 nM, the EC50 (Adrenergic β2) was 1 nM and the “β2 Int Act” value (Adrenergic β2) was 0.91. For the same molecule, the IC50 [2] was 3980 nM.

With `O=C(CCNCCc1cc(F)cc(F)c1)N(CCNCCc1ccc(O)c2[nH]c(=O)sc12)C1CCCCC1` [Example 92, N-Cyclohexyl-N^3-[2-(3,5-difluorophenyl)ethyl]-N-(2-{[2-(4-hydroxy-2-oxo-2,3-dihydro-1,3-benzothiazol-7-yl)ethyl]amino}ethyl)-β-alaninamide dihydrobromide salt] the “D2 bind pIC50” value [1] was 6.5, the “β2 pEC50” value (Adrenergic β2) was 8.5 and the “β1 bind p IC50” value [2] was 5.4.

For `O=C(CCNCCc1ccc(F)cc1Cl)N(CCNCCc1ccc(O)c2[nH]c(=O)sc12)C1CCCCCC1` [Example 57, N^3-[2-(2-Chloro-4-fluorophenyl)ethyl]-N^1-cycloheptyl-N^1-(2-{[2-(4-hydroxy-2-oxo-2,3-dihydro-1,3-benzothiazol-7-yl)ethyl]amino}ethyl)-β-alaninamide bis-trifluoroacetic acid salt], the IC50 [1] was 31.6 nM, the EC50 (Adrenergic β2) was 20 nM and the “β2 Int Act” value (Adrenergic β2) was 0.72. The IC50 [2] was 2510 nM.

For `O=C(CCNCCc1ccc(Cl)cc1)N(CCNCCc1ccc(O)c2[nH]c(=O)sc12)C1CCC(F)(F)CC1` [Example 48, N^3-[2-(4-Chlorophenyl)ethyl]-N^1-(4,4-difluorocyclohexyl)-N^1-(2-{[2-(4-hydroxy-2-oxo-2,3-dihydro-1,3-benzothiazol-7-yl)ethyl]amino}ethyl)-β-alaninamide bis-trifluoroacetic acid salt], the IC50 [1] was 100 nM, the EC50 (Adrenergic β2) was 10 nM and the “β2 Int Act” value (Adrenergic β2) was 0.55. It also gave an IC50 [2] of 2510 nM.

With `O=C(CCNCCc1cc(F)ccc1F)N(CCNCCc1ccc(O)c2[nH]c(=O)sc12)C1CCCCCC1` [Example 83, N^1-Cycloheptyl-N^3-[2-(2,5-difluorophenyl)ethyl]-N^1-(2-{[2-(4-hydroxy-2-oxo-2,3-dihydro-1,3-benzothiazol-7-yl)ethyl]amino}ethyl)-β-alaninamide bis-trifluoroacetic acid salt] the IC50 [1] was 63.1 nM, the EC50 (Adrenergic β2) was 3.98 nM and the “β2 Int Act” value (Adrenergic β2) was 0.71. For the same molecule, the IC50 [2] was 5010 nM.

For `COc1cccc(CCNCCC(=O)N(CCNCCc2ccc(O)c3[nH]c(=O)sc23)CC(C)(C)C)c1` [Example 43, N^1-(2,2-Dimethylpropyl)-N^1-(2-{[2-(4-hydroxy-2-oxo-2,3-dihydro-1,3-benzothiazol-7-yl)ethyl]amino}ethyl)-N^3-[2-(3-methoxyphenyl)ethyl]-β-alaninamide bis-trifluoroacetic acid salt], the IC50 [1] was 200 nM, the EC50 (Adrenergic β2) was 10 nM and the “β2 Int Act” value (Adrenergic β2) was 0.67. The IC50 [2] was 5010 nM.

`CC(C)(C)CN(CCNCCc1ccc(O)c2[nH]c(=O)sc12)C(=O)CCNCCc1ccc(Cl)c(Cl)c1` [Example 9, N^3-[2-(3,4-Dichlorophenyl)ethyl]-N-(2,2-dimethylpropyl)-N-(2-{[2-(4-hydroxy-2-oxo-2,3-dihydro-1,3-benzothiazol-7-yl)ethyl]amino}ethyl)-β-alaninamide bis-trifluoroacetic acid salt] was tested, and the IC50 [1] was 251 nM, the EC50 (Adrenergic β2) was 7.94 nM and the “β2 Int Act” value (Adrenergic β2) was 0.65. It also gave an IC50 [2] of 5010 nM.
